Format in all cases: cell-based
Experiment [1] relates to IGROV1-R10 ovarian cancer cells. Nature of the experiment: DNA content histograms (sub-G1) by flow cytometry. The settings on record: Molecule + Bcl-xL targeting siRNA. How it is done: (§1) Exponentially growing cells were transfected by siRNA as described below, and after 48 h, cells were continuously exposed to (Het)aromatic oligosystems (10, 25 or 50 μM) dissolved in DMSO (<0.1% of total volume) for 4 to 24 supplementary hours.
Cells were seeded in 25 cm^2 flasks the day before to reach 30-50% confluency at the time of transfection. The transfection INTERFERin™ reagent (Polyplus Transfection, Strasbourg. France) was added to siRNA diluted in Opti-MEM® reduced serum medium (Invitrogen, Cergy-Pontoise, France) and complexes formation was allowed to proceed for 15 min at RT before being applied to cells. […]
Adherent and floating cells were pooled, washed with 1×PBS and centrifuged at 200 g for 5 min before staining by Annexin V, propidium iodide or both, as recommended by the manufacturer (Roche Diagnostic, Indianapolis, USA). Briefly, 100 μl of Annexin V—Flit or propidium iodide or both were added on the cells pellet (10^6 cells) and incubated 15 minutes at room temperature in obscurity. 500 μl of sample buffer was then added on the suspensions that were thereafter analyzed using a Gallios flow cytometer (Beckman Coulter, Roissy, France) and cell cycle distribution was determined using Kaluza acquisition software (Beckman Coulter).

For experiment [2] the test system is unchanged. Nature of the experiment: PARP and caspase 3 cleavage by western blot. Further details: key to PARP cleavage: +: a little band corresponding to the 85 kDa cleaved form of PARP is observable on the western blot; ++: a band corresponding to the 85 kDa cleaved form of PARP is clearly observable on the western blot; +++: PARP in nearly completely cleaved. The note with it: Molecule + Bcl-xL targeting siRNA. How it is done:
as §1
(§2) Cells were seeded in 25 cm^2 flasks the day before to reach 30-50% confluency at the time of transfection. The transfection INTERFERin™ reagent (Polyplus Transfection, Strasbourg. France) was added to siRNA diluted in Opti-MEM® reduced serum medium (Invitrogen, Cergy-Pontoise, France) and complexes formation was allowed to proceed for 15 min at RT before being applied to cells. The final siRNA concentration in the flasks was 20 nM.
Cells were rinsed with ice-cold PBS, suspended in a lysis buffer [RIPA:NaCl 150 mM, Tris (pH 8) 50 mM, Triton X100 1%, PMSF 4 mM, EDTA 5 mM, NaF 10 mM, NaPPi 10 mM, Na3OV4 1 mM, aprotinin 0.5 μl/ml and 4.6 ml ultra pure water] and incubated on ice for 30 minutes. Lysates were collected after centrifugation (13200 g, 10 min, 4° C.) and protein concentrations were determined using the Bradford assay (Bio-Rad, Hercules, USA). 20 μg of protein were separated by SDS-PAGE on a 4-12% gradient polyacrylamide gel (Invitrogen, Cergy-Pontoise, France) and transferred to Hybond-PVDF membranes (Amersham, Orsay, France). After blocking non-specific binding sites for 1 hour at RT by 5% (w/v) non-fat dry milk in TBS with 0.1% (v/v) Tween20 (T-TBS), the membranes were incubated overnight at 4° C. with the following rabbit monoclonal antibody: PARP, caspase-3 and Bcl-xL, Bim (Cell Signaling Technology, Ozyme, Saint-Quentin-en-Yvelines, France), Mcl-1 (Santa Cruz, Le Perray-en-Yvelines, France), HSP-70, Noxa (Calbiochem, Fontenay-sous-Bois, France), (Cell Signalling) and Actin (Sigma-Aldrich, Saint-Quentin Fallavier, France). Membranes were then washed with T-TBS and incubated for 1 hour with the appropriate horseradish peroxidase-conjugated anti-rabbit or anti-mouse (Amersham, Orsay, France) secondary antibodies. Revelation was done using a luminescent Image Analyzer (GE Healthcare, Orsay, France).

Experiment [3] shares this test system. Briefly: Nuclear morphology after DAPI staining. Further details: key to Apoptotic nuclear features: +: a few condensed or fragmented nuclei are observable after DAPI staining; ++: numerous condensed or fragmented nuclei are observable after DAPI staining (20-50%); +++: most of the nuclei are condensed or fragmented. The note with it: Molecule + Bcl-xL targeting siRNA, DAPI staining. Here is the method:
as §1, §2
After treatment, both detached and adherent cells were pooled after trypsinization, applied to a polylysine-coated glass slide by cytocentrifugation and fixed with a solution of ethanol/chloroform/acetic acid (6:3:1). The preparations were then incubated for 15 min at room temperature with 1 μg/ml DAPI solution (Boehringer Mannheim-Roche, Mannheim, Germany), washed in distillated water, mounted under a coverslip in Mowiol (Calbiochem) and analyzed under a fluorescence microscope (BX51, Olympus, Rungis, France).
Cells were fixed with 2.5% glutaraldehyde in PBS buffer, included in agar, rinsed in Sorensen's buffer, post-fixed in osmium tetroxide 1% in Sorensen's buffer, deshydrated in ethanol and embedded in EPON resin. Ultrathin sections were cut and stained with uranyl acetate and lead citrate and examined using a JEOL1011 transmission electron microscope.

Experiment [4] shares this test system. Nature of the experiment: Cellular morphology / cell detachment, molecule alone or with Bcl-xL targeting siRNA. The settings on record: Molecule + Bcl-xL targeting siRNA. Here is the method: as §1, §2

`Cc1cc(-c2ncc(-c3ccccc3)cc2/C=C/c2ccccc2)cnc1-c1ccccc1` [compound 30814, 3-methyl-2-phenyl-5-(5-phenyl-3-styrylpyridin-2-yl)pyridine]: the “Sub-G1 (%)” value in experiment [1] was 37.2%. In addition, the PARP cleavage result in experiment [2] is listed as “+”. The Apoptotic nuclear features entry in experiment [3] was “+”.
For `Cc1cc(-c2ncc(-c3cccnc3)cc2/C=C/c2ccccc2)cnc1-c1cccc(C/C(N)=N/O)c1` [compound 31367, (1Z)—N′-hydroxy-2-(3-(3-methyl-5-(5-(pyridin-3-yl)-3-styrylpyridin-2-yl)pyridin-2-yl)phenyl)acetamidine], the “Sub-G1 (%)” value in experiment [1] was determined as 52.7%. Moreover, the Apoptotic nuclear features result in experiment [3] is recorded as “+++”.
In the same order, the values of `Cc1cc(-c2ncc(-c3sccc3C)cc2/C=C/c2ccccc2)cnc1-c1sccc1C` [compound 31336, 3-methyl-2-(3-methylthiophen-2-yl)-5-(5-(3-methylthiophen-2-yl)-3-(E)-styrylpyridin-2-yl)pyridine] are 48.8% and “++ (numerous condensed or fragmented nuclei are observable after DAPI staining (20-50%))”.
For the molecule `Cc1cc(-c2ncc(-c3cccnc3)cc2/C=C/c2ccccc2)cnc1-c1ccccc1` [compound 31349, 3-(6-(5-methyl-6-phenylpyridin-3-yl)-5-styrylpyridin-3-yl)pyridine], the “Sub-G1 (%)” value in experiment [1] worked out at 59.2%. Also, the PARP cleavage entry in experiment [2] is on record as “+++”. In addition, the Apoptotic nuclear features entry in experiment [3] is reported as “+++”.
For `Cc1cc(-c2ncc(-c3cnc(Cl)n3C)cc2/C=C/c2ccccc2)cnc1-c1cnc(Cl)n1C` [compound 31351, 5-(2-chloro-1-methyl-1H-imidazol-5-yl)-2-(6-(2-chloro-1-methyl-1H-imidazol-5-yl)-5-methylpyridin-3-yl)-3-styrylpyridine], in experiment [1], the “Sub-G1 (%)” value came to 56.7%. The Apoptotic nuclear features result in experiment [3] is recorded as “+++”.
For the molecule `COc1ccc(-c2ncc(-c3ncc(-c4cc(OC)c(OC)c(OC)c4)cc3/C=C/c3ccccc3)cc2C)cc1OC` [compound 30850, 5-(3,4,5-trimethoxyphenyl)-2-(6-(3,4-dimethoxyphenyl)-5-methylpyridin-3-yl)-3-styrylpyridine], in experiment [1], the “Sub-G1 (%)” value is 20.2%. The Apoptotic nuclear features entry in experiment [3] is “+”.
As for `COc1ccc(-c2cnc(-c3cnc(-c4cc(OC)c(OC)c(OC)c4)c(C)c3)c(/C=C/c3ccccc3)c2)cc1OC` [compound 30849, 5-(3,4-dimethoxyphenyl)-2-(6-(3,4,5-trimethoxyphenyl)-5-methylpyridin-3-yl)-3-styrylpyridine], the “Sub-G1 (%)” value in experiment [1] turned out to be 19.9%. For the same molecule, the Apoptotic nuclear features result in experiment [3] is given as “+”.
For `COc1ccc(-c2cnc(-c3cnc(-c4ccc(OC)c(OC)c4)c(C)c3)c(/C=C/c3ccccc3)c2)cc1OC` [compound 30846, 2-(3,4-dimethoxyphenyl)-5-(5-(3,4-dimethoxyphenyl)-3-styrylpyridin-2-yl)-3-methylpyridine], in experiment [1], the “Sub-G1 (%)” value was found to be 33.1%. Further, in experiment [3], the Apoptotic nuclear features entry was “+”.
In the same order, the values of `Cc1cc(-c2ncc(-c3ccn[nH]3)cc2/C=C/c2ccccc2)cnc1-c1ccn[nH]1` [compound 31363, 2-(5-methyl-6-(1H-pyrazol-5-yl)pyridin-3-yl)-5-(1H-pyrazol-5-yl)-3-styrylpyridine] are 63.7% and “+++”.
For `Cc1cc(-c2ncc(-c3cccnc3)cc2/C=C/c2ccccc2)cnc1-c1cccc(O)c1` [compound 31364, 3-(3-methyl-5-(5-(pyridin-3-yl)-3-styrylpyridin-2-yl)pyridin-2-yl)phenol] the same measures were 39.6% and “++ (numerous condensed or fragmented nuclei are observable after DAPI staining (20-50%))”.
Take `Cc1cc(-c2ncc(-c3ccccc3)cc2/C=C/c2ccccc2)cnc1-c1cccnc1` [compound 31348, 3-methyl-5-(5-phenyl-3-styrylpyridin-2-yl)-2-(pyridin-3-yl)pyridine]: the “Sub-G1 (%)” value in experiment [1] is reported as 58.8%. Further, the PARP cleavage result in experiment [2] is listed as “+++”. Also, in experiment [3], the Apoptotic nuclear features result is reported as “+++”.
With `Cc1cc(-c2ncc(-c3cncnc3)cc2/C=C/c2ccccc2)cnc1-c1cncnc1` [compound 31361, 5-(3-methyl-5-(5-(pyrimidin-5-yl)-3-styrylpyridin-2-yl)pyridin-2-yl)pyrimidine], the “Sub-G1 (%)” value in experiment [1] came out at 35.2%. Also, in experiment [3], the Apoptotic nuclear features entry is listed as “++ (numerous condensed or fragmented nuclei are observable after DAPI staining (20-50%))”.
In the case of `Cc1cc(-c2ncc(-c3ccc(C#N)cc3)cc2/C=C/c2ccccc2)cnc1-c1ccc(C#N)cc1` [compound 30854, 3-methyl-2-(4-cyanophenyl)-5-(5-(4-cyanophenyl)-3-styrylpyridin-2-yl)pyridine], in experiment [4], the Cell detachment result is given as “± (very few cells were detached from the support (less than 10%))”. Moreover, in experiment [1], the “Sub-G1 (%)” value is reported as 24.3%. For the same molecule, in experiment [3], the Apoptotic nuclear features result was “+”.
Take `COc1cc(-c2cnc(-c3cnc(-c4cc(OC)c(OC)c(OC)c4)c(C)c3)c(/C=C/c3ccccc3)c2)cc(OC)c1OC` [compound 30847, 5-(3,4,5-trimethoxyphenyl)-2-(6-(3,4,5-trimethoxyphenyl)-5-methylpyridin-3-yl)-3-styrylpyridine]: the Cell detachment entry in experiment [4] is “± (very few cells were detached from the support (less than 10%))”. Also, in experiment [1], the “Sub-G1 (%)” value was 22%. For the same molecule, the Apoptotic nuclear features result in experiment [3] is “+”.

(Values after patent US10307410B2, “Mcl-1 modulating compounds for cancer treatment” (CENTRE REGIONAL DE LUTTE CONTRE LE CANCER FRANCOIS BACLESSE, priority 2014, dated 2019).)
